Results taken from patent US11021481B2, “Substituted isoindolin-1-ones and 2,3-dihydro-1h-pyrrolo[3,4-c]pyridin-1-ones as HPK1 antagonists” (Nimbus Saturn, Inc., priority 2019, dated 2021).
Where a name gives a salt, the structure may show the parent alone.

These molecules were tested against HPK1 (Homo sapiens (Human), UniProt Q92918) (assay: HPK1 biochemical enzyme assay (microfluidic mobility shift assay)). Conditions: 1.5 nM HPK1, ATP 1 mM final, 30 min preincubation, 60 min at RT, Caliper EZ Reader; read-out: HPK1 1000UMATP caliper IC50.
Summary of the method: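 Ten-point compound titrations (top 3 μM final) preincubated 30 min with HPK1 and substrate, then reaction started with 1 mM ATP and 1 μM substrate, 5 mM MgCl2. After 60 min at RT, reaction terminated and product measured by microfluidic mobility shift.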

HPK1, sequence (Q92918 whole entry): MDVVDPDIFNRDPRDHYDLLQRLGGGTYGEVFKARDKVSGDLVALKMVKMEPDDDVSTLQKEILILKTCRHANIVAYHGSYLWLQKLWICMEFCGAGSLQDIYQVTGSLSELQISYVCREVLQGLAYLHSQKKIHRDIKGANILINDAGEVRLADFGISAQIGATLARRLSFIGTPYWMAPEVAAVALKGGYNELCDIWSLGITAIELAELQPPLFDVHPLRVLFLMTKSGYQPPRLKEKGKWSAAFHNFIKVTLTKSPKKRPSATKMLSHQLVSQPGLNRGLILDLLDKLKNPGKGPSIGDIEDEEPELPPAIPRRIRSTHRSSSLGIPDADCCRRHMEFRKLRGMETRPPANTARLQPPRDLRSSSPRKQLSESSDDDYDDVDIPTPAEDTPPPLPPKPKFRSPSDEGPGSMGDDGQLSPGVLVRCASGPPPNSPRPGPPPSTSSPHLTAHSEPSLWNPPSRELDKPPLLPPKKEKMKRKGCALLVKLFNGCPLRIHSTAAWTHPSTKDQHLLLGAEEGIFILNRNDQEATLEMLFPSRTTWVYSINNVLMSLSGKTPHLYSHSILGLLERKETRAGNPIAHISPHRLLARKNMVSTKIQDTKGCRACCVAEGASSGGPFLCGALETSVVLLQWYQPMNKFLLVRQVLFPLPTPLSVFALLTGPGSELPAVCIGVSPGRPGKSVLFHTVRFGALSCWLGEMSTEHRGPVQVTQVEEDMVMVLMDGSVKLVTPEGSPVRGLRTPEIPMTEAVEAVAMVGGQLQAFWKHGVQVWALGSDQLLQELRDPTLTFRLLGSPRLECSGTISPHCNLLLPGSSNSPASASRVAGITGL

First: CN1CCN(c2ccc(Nc3ccc(-c4ccn5ncnc5c4)c4c3C(=O)NC4)nc2)CC1 [I-36, 7-[[5-(4-methylpiperazin-1-yl)-2-pyridyl]amino]-4-([1,2,4]triazolo [1,5-a]pyridin-7-yl)isoindolin-1-one]
Second: CN1CCN(c2ccc(Nc3ccc(-c4c[nH]c5ncccc45)c4c3C(=O)NC4)nc2)CC1 [I-21, 7-[[5-(4-methylpiperazin-1-yl)-2-pyridyl]amino]-4-(1H-pyrrolo[2,3-b]pyridin-3-yl)-isoindolin-1-one]
The IC50 of the first is higher: 100 to 1000 nM for the first, less than 100 nM for the second.

First: CC(C)(O)[C@@H]1CCCN(c2ccc(Nc3cnc(-c4cnc5cc(F)ccn45)c4c3C(=O)NC4)nc2)C1 [I-226, (R)-4-(7-fluoroimidazo[1,2-a]pyridin-3-yl)-7-((5-(3-(2-hydroxypropan-2-yl)piperidin-1-yl)pyridin-2-yl)amino)-2,3-dihydro-1H-pyrrolo[3,4-c]pyridin-1-one]
Second: O=C1NCc2c(-c3cnc4cc(F)ccn34)ccc(Nc3ccc(N4CCC[C@@H](O)C4)cn3)c21 [I-174, 4-(7-fluoroimidazo [1,2-a]pyridin-3-yl)-7-[[5-[(3R)-3-hydroxy-1-piperipyl]-2-pyripyl]amino] isoindolin-1-one]
The IC50 of the first is higher: 100 to 1000 nM for the first, less than 100 nM for the second.

`COc1ccc2ncc(-c3ccc(Nc4ccc(N5CCC(O)CC5)cn4)c4c3CNC4=O)n2c1` [I-142, 7-[[5-(4-hydroxy-1-piperidyl)-2-pyridyl]amino]-4-(6-methoxy-imidazo[1,2-a]pyridin-3-yl)-isoindolin-1-one] and `O=C1NCc2c(-c3cnc4cccnn34)ccc(Nc3ccc(N4CCC(O)CC4)cn3)c21` [I-162, 7-[[5-(4-hydroxy-1-piperidyl)-2-pyridyl]amino]-4-imidazo[1,2-b]pyridazin-3-yl-isoindolin-1-one] cannot be ordered by IC50: less than 100 nM for the first, less than 100 nM for the second.

`O=C1NCc2c(-c3cnc4cc(F)ccn34)ccc(Nc3ccc([C@H]4CCOC4)c(CNCC(F)F)n3)c21` (single isomer, unassigned) [I-739] and `CN(CCO)Cc1nc(Nc2ccc(-c3cnc4cc(F)ccn34)c3c2C(=O)NC3)ccc1C1CCOC1` (stereo in doubt) [I-733, (S)-4-(7-fluoroimidazo [1,2-a]pyridin-3-yl)-7-(6-(((2-hydroxy-ethyl)(methyl)-amino)methyl)-5-(tetrahydrofuran-3-yl)pyridin-2-yl)amino)isoin-dolin-1-one] cannot be ordered by IC50: less than 100 nM for the first, less than 100 nM for the second.

`CN1CCN(c2ccc(Nc3cnc(-c4cnc5c(F)cccn45)c4c3C(=O)NC4)nc2)CC1C(C)(C)O` (stereo in doubt) [I-622, (S)-4-(8-fluoroimidazo [1,2-a]pyridin-3-yl)-7-((5-(3-(2-hydroxypropan-2-yl)-4-methylpiperazin-1-yl)pyridin-2-yl)amino)-2.3-dihydro-1H-pyrrolo[3,4-c]pyridin-1-one] and `O=C1NCc2c(-c3ccnc4[nH]ccc34)ncc(Nc3ccc(N4CCC(O)CC4)cn3)c21` [I-193, 7-[[5-(4-hydroxy-1-piperidyl)-2-pyridyl]-amino]-4-(1H-pyrrolo[2,3-b]pyridin-4-yl)-2,3-dihydropyrrolo [3,4-c]pyridin-1-one] cannot be ordered by IC50: less than 100 nM for the first, less than 100 nM for the second.

`Cn1ccc2c(-c3ncc(Nc4ccnc(N5CC[C@@H]6CNC[C@@H]65)n4)c4c3CNC4=O)ccnc21` [I-685, 7-((2-((3aR,6aR)-hexahydro-pyrrolo[3,4-b]pyrrol-1(2H)-yl)pyrimidin-4-yl)amino)-4-(1-methyl-1H-pyrrolo[2,3-b]pyridin-4-yl)-2,3-dihydro-1H-pyrrolo[3,4-c]pyridin-1-one] and `Cn1ccc2c(-c3ncc(Nc4cncc(N5CC[C@@H]6CNC[C@@H]65)n4)c4c3CNC4=O)ccnc21` (single isomer, unassigned) [I-661] fall in the same range of IC50: 100 to 1000 nM for the first, 100 to 1000 nM for the second.

`CN(C)Cc1nc(Nc2ccc(-c3cnc4cc(F)ccn34)c3c2C(=O)NC3)ccc1N1CCOC2(CC2)C1` [I-530, 7-[[6-[(dimethylamino)-methyl]-5-(4-oxa-7-azaspiro[2.5]octan-7-yl)-2-pyridyl]amino]-4-(7-fluoroimidazo [1,2-a]pyridin-3-yl)isoindolin-1-one Formic acid salt] and `CN(C)Cc1nc(Nc2ccc(-c3cnc4cc(F)ccn34)c3c2C(=O)NC3)ccc1C1(F)CCOCC1` [I-834, 7-((6-((dimethylamino)-methyl)-5-(4-fluorotetrahy-dro-2H-pyran-4-yl)pyridin-2-yl)amino)-4-(7-fluoroimidazo [1,2-a]pyridin-3-yl)isoindolin-1-one] cannot be ordered by IC50: less than 100 nM for the first, less than 100 nM for the second.

`CN(C)Cc1nc(Nc2ccc(-c3cnc4cc(F)ccn34)c3c2C(=O)NC3)ccc1[C@@H]1CCCO1` [I-560, (S)-7-((6-((dimethylamino)-methyl)-5-(tetrahydrofuran-2-yl)pyridin-2-yl)amino)-4-(7-fluoroimidazo [1,2-a]pyridin-3-yl)isoindolin-1-one] and `Cc1ccc2c(-c3ccc(Nc4ccc(C5CCOC5)c(CN(C)C)n4)c4c3CNC4=O)cnn2c1` (stereo in doubt) [I-731, (S)-7-((6-((dimethylamino)-methyl)-5-(tetrahydrofuran-3-yl)pyridin-2-yl)amino)-4-(6-methylpyra-zolo[1,5-a]pyridin-3-yl)isoindolin-1-one] cannot be ordered by IC50: less than 100 nM for the first, less than 100 nM for the second.

Compared with `CN1CCN(c2ccc(Nc3ccc(-c4c[nH]c5ccccc45)c4c3C(=O)NC4)nc2)CC1` [I-46, 4-(1H-indol-3-yl)-7-[[5-(4-methylpiperazin-1-yl)-2-pyridyl]amino] isoindolin-1-one], `Cc1cc(-c2ccc(Nc3ccc(N4CCN(C)CC4)cn3)c3c2CNC3=O)c2cc[nH]c2n1` [I-77, 7-[[5-(4-methylpiperazin-1-yl)-2-pyridyl]amino]-4-(6-methyl-1H-pyrrolo[2,3-b]pyridin-4-yl)isoindolin-1-one] is higher in IC50: less than 100 nM for the first, 100 to 1000 nM for the second.

First: CN(C)Cc1nc(Nc2cnc(-c3ccnc4c3ccn4C)c3c2C(=O)NC3)ccc1N1CCO[C@H](C(C)(C)O)C1 [I-770, (S)-7-((6-((dimethylamino)-methyl)-5-(2-(2-hydroxypropan-2-yl)morpholino)pyridin-2-yl)amino)-4-(1-methyl-1H-pyrrolo[2,3-b]pyridin-4-yl)-2,3-dihydro-1H-pyrrolo[3,4-c]pyridin-1-one]
Second: CCOc1c(C#N)ccn2c(-c3ccc(Nc4ccc(N5CCC(O)CC5)cn4)c4c3CNC4=O)cnc12 [I-185, 8-ethoxy-3-[7-[[5-(4-hydroxy-1-piperidyl)-2-pyripyl]amino]-1-oxo-isoindolin-4-yl]imidazo[1,2-a]pyridine-7-carbonitrile]
The IC50 of the first is lower: less than 100 nM for the first, 100 to 1000 nM for the second.

`O=C1NCc2c(-c3cnc4cc(F)ccn34)ccc(Nc3ccc(N4CCCC5(CNCCO5)C4)cn3)c21` (centres unmarked) [I-500, 4-(7-fluoroimidazo [1,2-a]pyridin-3-yl)-7-[[5-(1-oxa-4,8-diazaspiro[5.5]undecan-8-yl)-2-pyridyl]amino] isoindolin-1-one] and `Cc1ccn2c(-c3ccc(Nc4ccc([C@@H]5CCOC5)cn4)c4c3CNC4=O)cnc2c1` [I-192, (S)-4-(7-methylimidazo [1,2-a]pyridin-3-yl)-7-((5-(tetrahydro-furan-3-yl)pyridin-2-yl)amino)isoin-dolin-1-one] cannot be ordered by IC50: less than 100 nM for the first, less than 100 nM for the second.

`O=C1NCc2c(-c3cnn4cc(F)ccc34)ccc(Nc3ccc(N4CCC(O)CC4)cn3)c21` [I-465, 4-(6-fluoropyrazolo [1,5-a]pyridin-3-yl)-7-[[5-(4-hydroxy-1-piperidyl)-2-pyridyl]amino] isoindolin-1-one] showed an IC50 of less than 100 nM.
